Source: patent US20100087475A1, “PHARMACEUTICAL COMPOUNDS” (Biovali Laboratories International (Barbados) S.R.L., priority 2008, published 2010)

Key:
[1] = target: T1, VMAT-2 (Rattus norvegicus, UniProt Q01827); assay: [3H] Dihydrotetrabenazine binding assay for VMAT-2 (Assay B); conditions: [3H] dihydrotetrabenazine 5 nM, rat brain homogenate, competition binding
T1 construct: from tissue; host or cells: rat brain, 6 mm coronal slice incorporating the striatum, homogenate
Source text: Screen for VMAT-2 binding activity using a [^3H] Dihydrotetrabenazine binding Assay
Dihydrotetrabenazine is a very potent and selective inhibitor of VMAT-2, and binds with high affinity (nM range) to this vesicular transporter. [^3H] Dihydrotetrabenazine has been successfully used for many years as a radioligand to label VMAT-2 in human, bovine and rodent brain (e.g. Scherman et al. J. Neurochem. 50, 1131-1136 (1988); Near et al. Mol. Pharmacol. 30, 252-257 (1986); Kilbourn et al. Eur. J. Pharmacol. 278, 249-252 (1995); and Zucker et al. Life Sci. 69, 2311-2317 (2001)).
Charles River CD-1 rats were euthanized by decapitation and the brains dissected free and placed in ice cold PBS. The chilled brain was placed in a coronal brain matrix (Activational Systems, Inc) with 1 mm intervals. Single edge razor blades were inserted such that a 6 mm slice incorporating the striatum was removed. The tissue was weighed and placed in an ice-cold hand homogenizer, 10 volumes of KBS-EDTA (137 mM KCl, 3 mM NaCl, 8 mM K2HPO4, 1.5 mM NaH2PO4, 1 mM EDTA, pH 8.0) were added and the tissue homogenized with 10 strokes (maintaining on ice). Aliquots were placed into 500 μl microfuge tubes and then stored at −80° C. for later assays. A fresh aliquot was taken for protein assay. Protein concentrations were determined using BCA Protein Assay (Pierce Chemical) with bovine serum albumin as the standard. For VMAT2 assay, aliquots were thawed and placed on ice, and diluted with KBS-EDTA for a final protein concentration of 1 mg/ml.
Whatman GF/C filters (Acros) were presoaked with PBS/0.1% polyethylenimine at room temperature and then placed on a 48 place cell harvester (Brandel). Harvester was loaded with labeled tubes (12×75 mm) in the test tube rack. Into the tubes were placed 10 μl of the compound dilutions to their respective triplicate tubes and 1 μl of 10 mM TBZ added to the tubes used for non-specific binding measurements. Into each tube was then placed 0.5 ml of a 10 nM [^3H] dihydrotetrabenazine (DTBZ) dilution (American Radiolabeled Chemicals) in KBS-EDTA, the tubes were vortexed, and then 0.5 ml of the 1 mg/ml rat forebrain tissue homogenate solution was added into all tubes. Each tube was vortexed briefly and then incubated at room temperature for 30 minute.
Final concentrations of samples were 500 μg protein, 5 nM [3H]DTBZ; 10 μM TBZ (for nonspecific tubes) in 1 ml total volume. […] Filter circles were placed in scintillation vials and 10 ml of Universol (ICN) was added, samples incubated overnight and then counted on a Packard Tri-Carb 1600 scintillation counter.
Competition binding isotherms were analyzed with the use of computer-assisted nonlinear curve-fitting (LIGAND program) using both one and two site models.

[2] = target: T2, Adrenergic α2B Receptor (Homo sapiens, UniProt P18089); assay: Radioligand binding, [3H] Rauwolscine; conditions: compound at 10 μM
T2 construct: expressed in transfected cells; host or cells: CHO-K1 cells
T2 sequence (P18089 1-450): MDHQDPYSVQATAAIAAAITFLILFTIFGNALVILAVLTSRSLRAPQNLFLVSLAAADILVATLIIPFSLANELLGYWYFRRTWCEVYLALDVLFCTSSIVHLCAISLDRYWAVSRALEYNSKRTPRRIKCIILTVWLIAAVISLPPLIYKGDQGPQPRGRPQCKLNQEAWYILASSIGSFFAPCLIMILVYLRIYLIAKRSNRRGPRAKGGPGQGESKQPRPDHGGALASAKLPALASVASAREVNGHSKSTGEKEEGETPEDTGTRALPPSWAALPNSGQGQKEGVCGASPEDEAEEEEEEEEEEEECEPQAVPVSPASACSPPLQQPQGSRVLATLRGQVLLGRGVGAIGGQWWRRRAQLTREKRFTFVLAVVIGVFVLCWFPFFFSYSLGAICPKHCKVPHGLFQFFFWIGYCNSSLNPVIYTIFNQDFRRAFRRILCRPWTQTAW
Procedure: (§1) Compounds of the invention were subjected to specific binding assays to test their ability to bind to the receptors and transporter proteins described below.
(b) Adrenergic α2B Receptor:
• Reference: S. Uhlen et al., Eur. J. Pharmacol., 343 (1): 93-1-01 (1998) • Source: Human recombinant CHO-K1 cells • Ligand: 2.5 nM [3H]

[3] = target: T3, Dopamine D4.2 Receptor (Homo sapiens, UniProt P21917, DEL265-296); assay: Radioligand binding, [3H] Spiperone; conditions: compound at 10 μM
T3 construct: expressed in transfected cells; host or cells: CHO-K1 cells
T3 sequence (P21917 with tags, fused parts or gaps DEL265-296): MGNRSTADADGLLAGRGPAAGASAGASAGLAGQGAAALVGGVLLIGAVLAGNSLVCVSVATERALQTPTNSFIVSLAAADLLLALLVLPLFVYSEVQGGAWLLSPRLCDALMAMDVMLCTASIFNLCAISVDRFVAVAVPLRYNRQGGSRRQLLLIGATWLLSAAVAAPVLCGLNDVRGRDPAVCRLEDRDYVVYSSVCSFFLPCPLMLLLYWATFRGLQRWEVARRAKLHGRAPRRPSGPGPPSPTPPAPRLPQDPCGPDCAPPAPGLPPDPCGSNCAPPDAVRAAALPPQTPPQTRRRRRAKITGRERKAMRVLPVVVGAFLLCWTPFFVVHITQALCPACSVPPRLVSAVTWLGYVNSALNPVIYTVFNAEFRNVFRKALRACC
Procedure: as §1
(h) Dopamine D4.2 Receptor:
• Reference: Van Tol et al., Nature, 350:610-614 (1991) • Source: Human recombinant CHO-K1 cells • Ligand: 0.5 nM [^3H]

T1 sequence (Q01827 whole entry): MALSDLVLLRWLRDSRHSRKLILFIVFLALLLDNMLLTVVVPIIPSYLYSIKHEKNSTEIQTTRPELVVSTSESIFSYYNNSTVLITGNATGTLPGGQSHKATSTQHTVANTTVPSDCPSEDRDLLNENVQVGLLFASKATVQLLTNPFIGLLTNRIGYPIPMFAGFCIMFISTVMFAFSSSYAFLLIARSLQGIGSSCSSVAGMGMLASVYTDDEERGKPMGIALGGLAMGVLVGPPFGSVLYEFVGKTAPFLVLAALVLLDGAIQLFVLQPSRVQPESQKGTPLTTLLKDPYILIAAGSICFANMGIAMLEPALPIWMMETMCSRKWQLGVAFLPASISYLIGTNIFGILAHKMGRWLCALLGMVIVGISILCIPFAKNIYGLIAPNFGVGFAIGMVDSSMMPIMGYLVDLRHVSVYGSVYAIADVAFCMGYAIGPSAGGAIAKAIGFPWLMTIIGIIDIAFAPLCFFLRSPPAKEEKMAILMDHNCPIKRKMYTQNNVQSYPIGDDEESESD

Bmax [1] [fmol/µg] | Ki [1] [nM] | % inhibition, (b) α2B Receptor [2] [%] | % inhibition, (h) D4.2 Receptor [3] [%] | Structure (SMILES)
0.174 ± 0.035 | 451 | 21 | 55 | COc1cc2c(cc1O)[C@@H]1C[C@@H](O)[C@H](CC(C)C)CN1CC2 (single isomer, unassigned) [(+)-10-desmethyl-γ-dihydrotetrabenazine]
0.101 ± 0.009 | 1.82 | 44 | 90 | COc1cc2c(cc1O)[C@@H]1C[C@@H](O)[C@H](CC(C)C)CN1CC2 (single isomer, unassigned) [(−)-10-desmethyl-γ-dihydrotetrabenazine]
